The target of this test is T1, rat NPRA (Rattus norvegicus, UniProt P18910).
T1 construct: Full-Length cDNA Cloning and Generation of Cell Lines Overexpressing Natriuretic Peptide Receptors (NPRs); expressed in transfected cells; host or cells: Jump-in T-Rex HEK293 cells, pJTI R4 CMV-TO MCS pA vector, tetracycline induction
T1 sequence (P18910 29-1057): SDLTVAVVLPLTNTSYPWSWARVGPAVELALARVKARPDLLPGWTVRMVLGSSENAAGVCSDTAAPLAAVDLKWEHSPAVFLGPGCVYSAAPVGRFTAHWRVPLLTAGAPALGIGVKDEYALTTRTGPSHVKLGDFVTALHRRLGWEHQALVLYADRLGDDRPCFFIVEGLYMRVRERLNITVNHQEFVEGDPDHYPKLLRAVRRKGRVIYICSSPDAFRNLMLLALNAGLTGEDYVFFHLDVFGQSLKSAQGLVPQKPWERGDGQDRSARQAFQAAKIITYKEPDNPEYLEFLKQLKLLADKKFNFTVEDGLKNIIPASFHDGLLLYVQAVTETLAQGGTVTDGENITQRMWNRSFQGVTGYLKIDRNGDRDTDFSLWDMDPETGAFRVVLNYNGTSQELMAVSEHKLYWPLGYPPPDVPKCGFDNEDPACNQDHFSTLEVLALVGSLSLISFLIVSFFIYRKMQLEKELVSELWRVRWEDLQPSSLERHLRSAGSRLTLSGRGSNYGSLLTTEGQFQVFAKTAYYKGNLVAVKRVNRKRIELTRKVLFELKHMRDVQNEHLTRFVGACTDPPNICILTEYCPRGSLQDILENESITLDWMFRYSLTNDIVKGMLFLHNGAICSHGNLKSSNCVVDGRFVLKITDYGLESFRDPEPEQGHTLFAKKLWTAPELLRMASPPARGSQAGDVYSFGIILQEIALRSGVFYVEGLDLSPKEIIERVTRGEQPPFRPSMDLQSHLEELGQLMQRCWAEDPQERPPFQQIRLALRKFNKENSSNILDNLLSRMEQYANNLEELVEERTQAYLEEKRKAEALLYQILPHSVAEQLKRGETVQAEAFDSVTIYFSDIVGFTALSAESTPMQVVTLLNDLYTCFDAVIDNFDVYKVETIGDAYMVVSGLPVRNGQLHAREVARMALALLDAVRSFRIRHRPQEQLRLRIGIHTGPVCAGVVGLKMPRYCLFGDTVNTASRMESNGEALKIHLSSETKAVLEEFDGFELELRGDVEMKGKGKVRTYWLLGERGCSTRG
As to the kind of experiment: Rat NPRA cGMP activity assay (HTRF) in HEK293 cells overexpressing NPRA. In kind it is cell-based. Summed up: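 Tetracycline-induced (300 ng/mL, 48 h) T-Rex HEK293 cells expressing NPRA, 4000 cells/well, treated 40 min at room temperature with polypeptide (8 points, 10 μM to 1 pM) in HBSS/HEPES buffer with 0.5 mM IBMX, pH 7.4. cGMP by HTRF, normalised to 100 nM amidated rat ANP and buffer.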
(In general: In TR-FRET formats the signal depends on donor and acceptor labels being close together.)

Where [1] appears, read: cGMP Assay (EC50, pM) w/BSA rNPRA, assay buffer with 0.1% BSA.
Setting [2] is: assay buffer with 0.1% BSA, read-out: cGMP Assay (EC50, pM) w/BSA rNPRA.
Setting [3] is: assay buffer with 0.1% casein, read-out: cGMP Assay (EC50, pM) w/Casein rNPRA.
Setting [4] is: cGMP Assay (EC50, pM) w/Casein rNPRA, assay buffer with 0.1% casein.

Where two headings read alike, the source gives them in different places. Numbered stars: 1 amine (or outer) side, 2 acyl side, 3 side chain; on linkers, the order of the positions; unused ones are H or OH. Bridge positions count the residues as written; N and C are the ends. Square brackets hold non-standard residues; d marks the D form. Peptide text beside a SMILES is read from it. * marks the point of attachment. PEG24 = NCCOCCOCCOCCOCCOCCOCCOCCOCCOCCOCCOCCOCCOCCOCCOCCOCCOCCOCCOCCOCCOCCOCCOCCOCCC(=O)O; C20 diacid = O=C(O)CCCCCCCCCCCCCCCCCCC(=O)*; γGlu = O=C(O)[C@H](CCC(=O)[*:2])N[*:1]; 4Pal = N[C@@H](Cc1ccncc1)C(=O)O; Dap = NC[C@H](N)C(=O)O; CH2 = C([*:1])[*:2]; βAla = NCCC(=O)O

With “{C20 diacid-γGlu}-EKEKEKG[PEG24]S[4Pal]RRSSCFGGRIDRIGHQSGLGCPSFRHGGPSSGAPPPS-NH2 (linker 15-31 via CH2) [Example 61]”, the EC50 under setting [1] came out at 463000 pM. As for `CC[C@H](C)[C@@H]1NC(=O)[C@H](CCCNC(=N)N)NC(=O)[C@H](CC(=O)O)NC(=O)[C@H]([C@@H](C)CC)NC(=O)[C@H](CCCNC(=N)N)NC(=O)[C@H](CCCCN)NC(=O)CNC(=O)[C@H](Cc2ccccc2)NC(=O)[C@@H](NC(=O)[C@H](CO)NC(=O)[C@H](CO)NC(=O)[C@H](CCCNC(=N)N)NC(=O)CCNC(=O)[C@H](CCCCN)NC(=O)[C@H](CCC(=O)O)NC(=O)CCOCCOCCOCCOCCOCCOCCOCCOCCOCCOCCOCCOCCOCCOCCOCCOCCOCCOCCOCCOCCOCCOCCOCCOCCNC(=O)CNC(=O)[C@H](CCCCN)NC(=O)[C@H](CCC(=O)O)NC(=O)[C@H](CCCCN)NC(=O)[C@H](CCC(=O)O)NC(=O)[C@H](CCCCN)NC(=O)[C@H](CCC(=O)O)NC(=O)CC[C@H](NC(=O)CCCCCCCCCCCCCCCCCCC(=O)O)C(=O)O)CSCSC[C@@H](C(=O)N2CCC[C@H]2C(=O)N[C@@H](CO)C(=O)N[C@@H](Cc2ccccc2)C(=O)N[C@@H](CCCNC(=N)N)C(=O)N[C@@H](Cc2c[nH]cn2)C(=O)NCC(=O)NCC(=O)N2CCC[C@H]2C(N)=O)NC(=O)CNC(=O)[C@H](CC(C)C)NC(=O)CNC(=O)[C@H](CO)NC(=O)[C@H](CCC(N)=O)NC(=O)[C@H](Cc2c[nH]cn2)NC(=O)CNC1=O` [Example 130] ({C20 diacid-γGlu}-EKEKEKG[PEG24]EK[βAla]RSSCFGKRIDRIGHQSGLGCPSFRHGGP-NH2; linker 15-31 via CH2), the EC50 stood at 197000 pM under setting [2] and 9170 pM under setting [3]. Take `CC[C@H](C)[C@@H]1NC(=O)[C@H](CCCNC(=N)N)NC(=O)[C@H](CC(=O)O)NC(=O)[C@H]([C@@H](C)CC)NC(=O)[C@H](CCCNC(=N)N)NC(=O)CNC(=O)CNC(=O)[C@H](Cc2ccccc2)NC(=O)[C@@H](NC(=O)[C@H](CO)NC(=O)[C@H](CO)NC(=O)[C@H](CCCNC(=N)N)NC(=O)CCNC(=O)[C@H](CCCCN)NC(=O)[C@H](CCC(=O)O)NC(=O)CNC(=O)[C@H](CCCCN)NC(=O)[C@H](CCC(=O)O)NC(=O)[C@H](CCCCN)NC(=O)[C@H](CCC(=O)O)NC(=O)[C@H](CCCCN)NC(=O)[C@H](CCC(=O)O)NC(=O)CC[C@H](NC(=O)CCCCCCCCCCCCCCCCCCC(=O)O)C(=O)O)CSCSC[C@@H](C(=O)N2CCC[C@H]2C(=O)N[C@@H](CO)C(=O)N[C@@H](Cc2ccccc2)C(=O)N[C@@H](CCCNC(=N)N)C(=O)N[C@@H](Cc2c[nH]cn2)C(=O)NCC(=O)NCC(=O)N2CCC[C@H]2C(=O)N[C@@H](CO)C(=O)N[C@@H](CO)C(=O)NCC(=O)N[C@@H](C)C(=O)N2CCC[C@H]2C(=O)N2CCC[C@H]2C(=O)N2CCC[C@H]2C(=O)N[C@@H](CO)C(N)=O)NC(=O)CNC(=O)[C@H](CC(C)C)NC(=O)CNC(=O)[C@H](CO)NC(=O)[C@H](Cc2ccc(O)cc2)NC(=O)[C@H](Cc2c[nH]cn2)NC(=O)CNC1=O` [Example 56]: the EC50 is, setting by setting: under setting [1], 1.38e+06 pM; under setting [4], 11200 pM. As for `CC[C@H](C)[C@@H]1NC(=O)[C@H](CCCNC(=N)N)NC(=O)[C@H](CC(=O)O)NC(=O)[C@H]([C@@H](C)CC)NC(=O)[C@H](CCCNC(=N)N)NC(=O)[C@H](CCCCN)NC(=O)CNC(=O)[C@H](Cc2ccccc2)NC(=O)[C@@H](NC(=O)[C@H](CO)NC(=O)[C@H](CO)NC(=O)[C@H](CCCNC(=N)N)NC(=O)CCNC(=O)[C@H](CCCCN)NC(=O)[C@H](CCC(=O)O)NC(=O)COCCOCCNC(=O)COCCOCCNC(=O)COCCOCCNC(=O)COCCOCCNC(=O)COCCOCCNC(=O)COCCOCCNC(=O)CNC(=O)[C@H](CCCCN)NC(=O)[C@H](CCC(=O)O)NC(=O)[C@H](CCCCN)NC(=O)[C@H](CCC(=O)O)NC(=O)[C@H](CCCCN)NC(=O)[C@H](CCC(=O)O)NC(=O)CC[C@H](NC(=O)CCCCCCCCCCCCCCCCCCC(=O)O)C(=O)O)CSCSC[C@@H](C(=O)N2CCC[C@H]2C(=O)N[C@@H](CO)C(=O)N[C@@H](Cc2ccccc2)C(=O)N[C@@H](CCCNC(=N)N)C(=O)N[C@@H](Cc2c[nH]cn2)C(=O)NCC(=O)NCC(=O)N[C@@H](CCCCN)C(=O)N[C@@H](CO)C(=O)N[C@@H](CO)C(=O)NCC(=O)N[C@@H](C)C(=O)N2CCC[C@H]2C(=O)N2CCC[C@H]2C(=O)N2CCC[C@H]2C(=O)N[C@@H](CO)C(N)=O)NC(=O)CNC(=O)[C@H](CC(C)C)NC(=O)CNC(=O)[C@H](CO)NC(=O)[C@H](CCC(N)=O)NC(=O)[C@H](Cc2c[nH]cn2)NC(=O)CNC1=O` [Example 89], the EC50 under setting [3] was found to be 13800 pM.

With “{C20 diacid-γGlu}-EKEKEKGS[4Pal]RRSSCFGGRIGRIGHQSGLGCPSFRHGGPSSGAPPPS-NH2 (disulfide 14-30) [Example 29]”, the EC50 under setting [4] was 16800 pM. For `CC[C@H](C)[C@@H]1NC(=O)[C@H](CCCNC(=N)N)NC(=O)[C@H](CC(=O)O)NC(=O)[C@H]([C@@H](C)CC)NC(=O)[C@H](CCCNC(=N)N)NC(=O)CNC(=O)CNC(=O)[C@H](Cc2ccccc2)NC(=O)[C@@H](NC(=O)[C@H](CO)NC(=O)[C@H](CO)NC(=O)[C@H](CCCNC(=N)N)NC(=O)[C@H](CCCNC(=N)N)NC(=O)[C@H](Cc2ccncc2)NC(=O)[C@H](CO)NC(=O)COCCOCCNC(=O)COCCOCCNC(=O)COCCOCCNC(=O)COCCOCCNC(=O)COCCOCCNC(=O)COCCOCCNC(=O)CNC(=O)[C@H](CCCCN)NC(=O)[C@H](CCC(=O)O)NC(=O)[C@H](CCCCN)NC(=O)[C@H](CCC(=O)O)NC(=O)[C@H](CCCCN)NC(=O)[C@H](CCC(=O)O)NC(=O)CC[C@H](NC(=O)CCCCCCCCCCCCCCCCCCC(=O)O)C(=O)O)CSCSC[C@@H](C(=O)N2CCC[C@H]2C(=O)N[C@@H](CO)C(=O)N[C@@H](Cc2ccccc2)C(=O)N[C@@H](CCCNC(=N)N)C(=O)N[C@@H](Cc2c[nH]cn2)C(=O)NCC(=O)NCC(=O)N[C@@H](CCCCN)C(=O)N[C@@H](CO)C(=O)N[C@@H](CO)C(=O)NCC(=O)N[C@@H](C)C(=O)N2CCC[C@H]2C(=O)N2CCC[C@H]2C(=O)N2CCC[C@H]2C(=O)N[C@@H](CO)C(N)=O)NC(=O)CNC(=O)[C@H](CC(C)C)NC(=O)CNC(=O)[C@H](CO)NC(=O)[C@H](CCC(N)=O)NC(=O)[C@H](Cc2c[nH]cn2)NC(=O)CNC1=O` [Example 86], under setting [3], the EC50 amounted to 17900 pM. On to “{C20 diacid-γGlu}-EKEKEKGEKPRSSCFG[Dap]RIDRIGHQSGLGCPSFRHGSPSSGAPPPS-NH2 (linker 14-30 via CH2) [Example 137]”, for which the EC50 came to 2.19e+06 pM under setting [2] and 76900 pM under setting [3]. For “{C20 diacid-γGlu}-EKEKEKGEKPRSSCFG[Dap]RIDRIGHYSGLGCPSFRHGSPSSGAPPPS-NH2 (linker 14-30 via CH2) [Example 136]” the same measures were 2.43e+06 pM and 32900 pM. The molecule `CC[C@H](C)[C@@H]1NC(=O)[C@H](CCCNC(=N)N)NC(=O)[C@H](CC(=O)O)NC(=O)[C@H]([C@@H](C)CC)NC(=O)[C@H](CCCNC(=N)N)NC(=O)CNC(=O)CNC(=O)[C@H](Cc2ccccc2)NC(=O)[C@@H](NC(=O)[C@H](CO)NC(=O)[C@H](CO)NC(=O)[C@H](CCCNC(=N)N)NC(=O)CCNC(=O)[C@H](CCC(=O)O)NC(=O)[C@H](CCCCN)NC(=O)CNC(=O)[C@H](CCCCN)NC(=O)[C@H](CCC(=O)O)NC(=O)[C@H](CCCCN)NC(=O)[C@H](CCC(=O)O)NC(=O)[C@H](CCCCN)NC(=O)[C@H](CCC(=O)O)NC(=O)CC[C@H](NC(=O)CCCCCCCCCCCCCCCCCCC(=O)O)C(=O)O)CSCSC[C@@H](C(=O)N2CCC[C@H]2C(=O)N[C@@H](CO)C(=O)N[C@@H](Cc2ccccc2)C(=O)N[C@@H](CCCNC(=N)N)C(=O)N[C@@H](Cc2c[nH]cn2)C(=O)NCC(=O)NCC(=O)N2CCC[C@H]2C(=O)N[C@@H](CO)C(=O)N[C@@H](CO)C(=O)NCC(=O)N[C@@H](C)C(=O)N2CCC[C@H]2C(=O)N2CCC[C@H]2C(=O)N2CCC[C@H]2C(=O)N[C@@H](CO)C(N)=O)NC(=O)CNC(=O)[C@H](CC(C)C)NC(=O)CNC(=O)[C@H](CO)NC(=O)[C@H](Cc2ccc(O)cc2)NC(=O)[C@H](Cc2c[nH]cn2)NC(=O)CNC1=O` [Example 58] displayed an EC50 under setting [1] of 1.38e+06 pM.

The values above are taken from patent publication US20240174727A1, “LONG-ACTING NATRIURETIC PEPTIDES AND USES THEREOF” (Eli Lilly and Company, priority 2022, published 2024).
